# Source: patent publication US11976083B2, “Inhibitors of peptidylarginine deiminases” (Gilead Sciences, Inc., priority 2020, dated 2024)
# Target: T1, human PAD4 (Homo sapiens, UniProt Q9UM07)
# T1 construct: human PAD4 (NM_012387), A2-P663, was PCR amplified; His-SUMO (N, cleaved yes); made in house; host or cells: E. coli BL21(DE3)
# Assay: In vitro PAD4 BAEE biochemical assay
# Conditions: BAEE substrate 3 mM, 5 nM PAD4, 2 mM calcium chloride; geometric mean of multiple experiments
# How it was run: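 Assay was run at 25 °C using 3 mM BAEE and 5 nM human PAD4 after a 30 min compound preincubation; ammonia produced over 2 h was quantified by OPA-derived fluorescence. Full inhibition was defined by 50 µM BB-Cl-Amidine, and IC50 came from variable-slope nonlinear regression.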
# T1 sequence (Q9UM07 2-663): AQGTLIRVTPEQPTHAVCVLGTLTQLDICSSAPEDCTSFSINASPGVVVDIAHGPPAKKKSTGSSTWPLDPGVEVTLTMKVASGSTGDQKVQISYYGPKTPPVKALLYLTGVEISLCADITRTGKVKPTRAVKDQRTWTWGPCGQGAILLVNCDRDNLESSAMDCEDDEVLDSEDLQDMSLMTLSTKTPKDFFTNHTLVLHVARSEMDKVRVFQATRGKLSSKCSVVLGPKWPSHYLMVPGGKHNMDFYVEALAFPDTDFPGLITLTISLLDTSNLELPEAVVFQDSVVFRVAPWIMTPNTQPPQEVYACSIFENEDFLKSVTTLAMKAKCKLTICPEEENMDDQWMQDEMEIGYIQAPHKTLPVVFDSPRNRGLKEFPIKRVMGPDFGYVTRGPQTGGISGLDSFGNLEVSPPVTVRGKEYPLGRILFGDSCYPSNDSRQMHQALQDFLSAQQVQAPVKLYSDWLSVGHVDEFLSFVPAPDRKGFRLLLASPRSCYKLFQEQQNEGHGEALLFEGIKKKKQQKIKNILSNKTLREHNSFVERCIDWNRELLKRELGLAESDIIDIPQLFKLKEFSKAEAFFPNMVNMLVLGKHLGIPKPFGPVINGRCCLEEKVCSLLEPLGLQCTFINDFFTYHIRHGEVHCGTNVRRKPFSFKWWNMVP
row,IC50 [nM],Structure (SMILES)
1,44,"CCn1c(-c2cc3ccc4nc3n2CCCCCc2nc(Cl)ccc2C(=O)N[C@@H]4C)nc2cc(C(=O)N3C[C@H](N)[C@@H]4CC[C@H]3C4)cc(F)c21 [Example 939, (2~{R})-17-[5-[(1~{S),4~{R}, 5~{R})-4-amino-2-azabicyclo [3.2.1]octane-2-carbonyl]-1-ethyl-7-fluoro-benzimidazol-2-yl]-8-chloro-2-methyl-3,9,16,22-tetrazatetracyclo[14.5.2.0^ {5,10}.0^{19,23}]tricosa-1(22),5(10),6,8,17,19(23),20-heptaen-4-one]"
2,66,"C[C@H]1NC(=O)c2ccccc2CC[C@@H]2C[C@H]2Cn2c(-c3nc4cc(C(=O)N[C@H]5CNCC[C@@H]5F)c(F)cc4n3C3CC3)cc3ccc1nc32 [Example 348, 1-cyclopropyl-6-fluoro-~{N}-[(3~{S},4~{S})-4-fluoro-3-piperidyl]-2-[(3~{R},5~{R},16~{R})-16-methyl-14-oxo-1,15,24-triazapentacyclo[15.5.2.0^{3,5}.0^{8,13}.0^ {20,23}]tetracosa-8,10,12,17(24),18,20(23),21-heptaen-22-yl]benzimidazole-5-carboxamide]"
3,21,"COc1cc(C(=O)N2C[C@H]3OC[C@@H]2[C@@H]3N)cc2nc(-c3cc4ccc5nc4n3CC(F)(F)CCC[C@@H]3C[C@H]3C(=O)N[C@@H]5C)n(C)c12 [Example 707, (2~{R},5~{R},7~{R})-14-[5-[(1~{R},4~{S},7~ {S})-7-amino-2-oxa-5-azabicyclo[2.2.1]heptane-5-carbonyl]-7-methoxy-1-methyl-benzimidazol-2-yl]-11,11-difluoro-2-methyl-3,13,19-triazatetracyclo[11.5.2.0^ {5,7}.0^{16,20}]icosa-1(19),14,16(20),17-tetraen-4-one]"
4,53,"COc1cc(C(=O)N2[C@H]3CC[C@@H]2[C@H](N)C3)cc2nc(-c3cc4ccc5nc4n3C[C@@H]3CC[C@@H]3COCCC(=O)N[C@@H]5C)c(C)n12 [Example 9, (3~{R},6~{S},13~{R})-19-[7-[(1~{R},2~{R},4~{S})-2-amino-7-azabicyclo[2.2.1]heptane-7-carbonyl]-5-methoxy-3-methyl-imidazo[1,2-a]pyridin-2-yl]-13-methyl-8-oxa-1,12,21-triazatetracyclo[12.5.2.0^{3,6}.0^{17,20}] henicosa-14(21),15,17(20),18-tetraen-11-one]"
5,97,"COc1cc(C(=O)N2[C@H]3CC[C@@H]2[C@H](N)C3)cc2nc(-c3cc4ccc5cc4n3CCCCCCC(=O)Nc3ncccc3-5)n(C)c12 [Example 88, 17-[5-[(1˜{R},2˜{R},4˜{S})-2-amino-7-azabicyclo[2.2.1]heptane-7-carbonyl]-7-methoxy-1-methyl-benzimidazol-2-yl]-6,8,16-triazatetracyclo[14.5.2.0^{2,7}.0^{19,23}]tricosa-1(22),2,4,6,17,19(23),20-heptaen-9-one]"
6,30,"COc1cc(C(=O)N2C[C@H](N)[C@@H]3CC[C@H]2C3)cc2nc(-c3cc4ccc5c(F)c4n3CC(F)(F)CCC[C@@H]3C[C@H]3C(=O)N[C@@H]5C)n(C)c12 [Example 437, (2~{R},5~{R},7~{R})-14-[5-[(1~{S},4~{R},5~{R})-4-amino-2-azabicyclo[3.2.1]octane-2-carbonyl]-7-methoxy-1-methyl-benzimidazol-2-yl]-11,11,19-trifluoro-2-methyl-3,13-diazatetracyclo[11.5.2.0^{5,7}.0^{16,20}] icosa-1(19),14,16(20),17-tetraen-4-one]"
7,73,"COc1cc(C(=O)N2[C@H]3CC[C@@H]2[C@H](N)C3)cc2nc(-c3cc4ccc5cc4n3CCCCCCC3(CC3)C(=O)N[C@@H]5C)n(C3CC3)c12 [Example 225, (11~{R})-17-[5-[(1~{R},2~{R},4~{S})-2-amino-7-azabicyclo[2.2.1]heptane-7-carbonyl]-1-cyclopropyl-7-methoxy-benzimidazol-2-yl]-11-methyl-spiro[1,10-diazatricyclo[10.5.2.0^{15,18}]nonadeca-12(19),13,15(18),16-tetraene-8,1′-cyclopropane]-9-one]"
8,17,"Cc1nccc2c1C(=O)N[C@H](C)c1ccc3cc(-c4nc5cc(C(=O)N[C@H]6CNCC[C@@H]6F)c(F)cc5n4C4CC4)n(c3n1)CCCCC2 [Example 396, 1-cyclopropyl-2-[(2~{R})-2,6-dimethyl-4-oxo-3,7,16,22-tetrazatetracyclo[14.5.2.0^{5,10}.0^{19,23}]tricosa-1(22),5(10),6,8,17,19(23),20-heptaen-17-yl]-6-fluoro-~{N}-[(3~{S},4~{S})-4-fluoro-3-piperidyl]benzimidazole-5-carboxamide]"
9,48,"C[C@H]1NC(=O)C(C)(C)CCCCCCn2c(-c3nc4cc(C(=O)N[C@H]5CNCC[C@@H]5F)c(F)cc4n3C(F)F)cc3ccc1nc32 [Example 626, 1-(difluoromethyl)-6-fluoro-˜{N}-[(3˜{S},4˜{S})-4-fluoro-3-piperidyl]-2-[(11˜{R})-8,8,11-trimethyl-9-oxo-1,10,19-triazatricyclo[10.5.2.0^{15,18}]nonadeca-12(19),13,15(18),16-tetraen-17-yl]benzimidazole-5-carboxamide]"
10,32,"COc1cc(C(=O)N2[C@H]3CC[C@@H]2[C@H](N)C3)cc2nc(-c3cc4ccc5nc4n3CCCCOCCC(=O)N[C@@H]5C)c(C)n12 [Example 321, (11~{R})-17-[7-[(1~{R},2~{R},4~{S})-2-amino-7-azabicyclo[2.2.1]heptane-7-carbonyl]-5-methoxy-3-methyl-imidazo[1,2-a]pyridin-2-yl]-11-methyl-6-oxa-1,10,19-triazatricyclo[10.5.2.0^{15,18}]nonadeca-12(19),13,15(18),16-tetraen-9-one]"
11,26,"COc1cc(C(=O)N2C[C@H](N)[C@@H]3CC[C@H]2C3)cc2nc(-c3cc4ccc5nc4n3CCCCC[C@]3(F)C[C@H]3C(=O)N[C@@H]5C)c(C)n12 [Example 815, (2~{R},5~{S},7~{S})-14-[7-[(1~{S},4~{R},5~{R})-4-amino-2-azabicyclo[3.2.1]octane-2-carbonyl]-5-methoxy-3-methyl-imidazo[1,2-a]pyridin-2-yl]-7-fluoro-2-methyl-3,13,19-triazatetracyclo [11.5.2.0^{5,7}.0^{16,20}] icosa-1(18),14,16,19-tetraen-4-one]"
12,78,"CO[C@@H]1CCN(C(=O)c2cc(F)c3c(c2)nc(-c2cc4ccc5nc4n2CCCCCc2nccnc2C(=O)N[C@@H]5C)n3C2CC2)C[C@@H]1N [Example 578, (2~{R})-17-[5-[(3~{S},4~ {R})-3-amino-4-methoxy-piperidine-1-carbonyl]-1-cyclopropyl-7-fluoro-benzimidazol-2-yl]-2-methyl-3,6,9,16,22-pentazatetracyclo[14.5.2.0^ {5,10}.0^{19,23}] tricosa-1(22),5(10),6,8,17, 19(23),20-heptaen-4-one]"
13,12,"COc1cc(C(=O)N2CCC[C@@H](N)[C@H]2C)cc2nc(-c3cc4ccc5nc4n3CCCCCCC3(COC3)C(=O)N[C@@H]5C)n(C)c12 [Example 799, (11~{R})-17-[5-[(2~{R},3~{R})-3-amino-2-methyl-piperidine-1-carbonyl]-7-methoxy-1-methyl-benzimidazol-2-yl]-11-methyl-spiro[1,10,19-triazatricyclo[10.5.2.0^ {15,18}]nonadeca-12,14,16,18-tetraene-8,3′-oxetane]-9-one]"
